{"source": "patent US12016881B2", "about": "“Methods and reagents for modulating macrophage phenotype” (NEW YORK UNIVERSITY, priority 2016, dated 2024)", "format_in_all_cases": "cell-based, mouse", "key": {"[1]": {"system": "RAW 264.7 cells", "assay": "Gene expression analysis (qPCR) of M1 cytokines and Inos", "details": "for effect on nab-paclitaxel-dependent M1 cytokine expression: co-treatment with nab-paclitaxel", "method": "Cell lines and cell culture treatments. All cells were maintained under 5% CO2 at 37° C. and cultured in DMEM (Gibco) supplemented with 10% FBS (Gibco), penicillin and streptomycin (Gibco), and 25 mmol/L HEPES (Gibco). Mouse RAW 264.7 cells were obtained from the American Type Culture Collection (2014, ATCC TIB-71). Mouse KPC cells were a kind gift from Dr. R. H. Vonderheide (2013) and generated as previously described (Lo et al., “Tumor-Promoting Desmoplasia Is Disrupted by Depleting FAP-Expressing Stromal Cells,” Cancer Res. 75:2800-10 (2015), which is hereby incorporated by reference in its entirety). Cell lines were not authenticated and were tested for mycoplasma contamination every 3 months by DAPI stain of cells grown for 1 week in the absence of antibiotics. KPC and RAW 264.7 were propagated for 2 to 3 passages (approximately 1 week) prior to use in all experiments and were kept in culture for no longer than 1 month. Recombinant mouse interferon gamma IFNγ was purchased from R&D Systems (CN 485 MI/CF), LPS (L2630), and paclitaxel (T7402) were purchased from Sigma-Aldrich, CLI-095 was purchased from Invivogen (TLRL-CLI95), BAPTA-AM was purchased from Life Technologies (B6769), and 5-(N-ethyl-N-isopropyl) amiloride (EIPA) was purchased from Invitrogen Molecular Probes (e-3111). Reagents were used at concentrations of 5 ng/mL (IFNγ), 20 ng/mL (LPS), […] (paclitaxel), 500 nmol/L (CLI-095), […] (BAPTA-AM), and […] (EIPA) unless indicated otherwise. Tetramethylrhodamine (TMR)-labeled dextran was purchased from Invitrogen (D1822). Nab-paclitaxel (Abraxane; Abraxis BioScience) pharmaceutical grade powder was purchased through the NYU Langone Medical Center pharmacy and used at a concentration of […] for in vitro experiments.\nGene expression analysis. For in vitro qPCR analysis, total RNAwas harvested 2 hours (IL1α, IL1β, IL6, TNFα, and iNOS) or 8 hours (IL12β) after cell culture treatments, using the QIAGEN RNA extraction Kit (QIAGEN). For in vivo gene expression analysis, the CD45 F4/80 double-positive population was sorted directly into TRIzol LS Reagent (Thermo-FisherScientific; CN 10296) from dissociated orthotopic tumors 48 hours after treatment, and total RNA was purified according to the manufacturer's protocol. Purified RNA ([…]) was reverse-transcribed using the QuantiTect Reverse Transcription Kit (QIAGEN), and 1 of 10 of cDNA mixture (in vitro experiments) or 1 of 3 of cDNA mixture (in vivo experiments) was used for qPCR reaction. Primers were obtained from Integrated DNA Technologies (IDT) with the following sequences (5′-3′): Il1α (Forward) […] (SEQ ID NO: 2), (Reverse) […] (SEQ ID NO: 3); Il1β (Forward) […] (SEQ ID NO: 4), (Reverse) […] (SEQ ID NO: 5); Il6 (Forward) […]-[…] (SEQ ID NO: 6), (Reverse) […] (SEQ ID NO: 7); Inos (Forward) […] (SEQ ID NO: 8), (Reverse) […] (SEQ ID NO: 9); Tnfα (Forward) […] (SEQ ID NO: 10), (Reverse) […] (SEQ ID NO: 11); Il12b (IIl12 p40) (Forward) […] (SEQ ID NO: 12), (Reverse) […]-[…] (SEQ ID NO: 13); Gapdh (Forward) […] (SEQ ID NO: 14), (Reverse) […] (SEQ ID NO: 15); Rps29 […] (SEQ ID NO: 16) (Forward), […]-GCGTACT (SEQ ID NO: 17) (Reverse)."}, "[2]": {"system": "RAW 264.7 cells", "assay": "Western blot analysis of M1 cytokine and iNOS protein expression", "method": "(§1) Cell lines and cell culture treatments. All cells were maintained under 5% CO2 at 37° C. and cultured in DMEM (Gibco) supplemented with 10% FBS (Gibco), penicillin and streptomycin (Gibco), and 25 mmol/L HEPES (Gibco). Mouse RAW 264.7 cells were obtained from the American Type Culture Collection (2014, ATCC TIB-71). Mouse KPC cells were a kind gift from Dr. R. H. Vonderheide (2013) and generated as previously described (Lo et al., “Tumor-Promoting Desmoplasia Is Disrupted by Depleting FAP-Expressing Stromal Cells,” Cancer Res. 75:2800-10 (2015), which is hereby incorporated by reference in its entirety). Cell lines were not authenticated and were tested for mycoplasma contamination every 3 months by DAPI stain of cells grown for 1 week in the absence of antibiotics. KPC and RAW 264.7 were propagated for 2 to 3 passages (approximately 1 week) prior to use in all experiments and were kept in culture for no longer than 1 month. Recombinant mouse interferon gamma IFNγ was purchased from R&D Systems (CN 485 MI/CF), LPS (L2630), and paclitaxel (T7402) were purchased from Sigma-Aldrich, CLI-095 was purchased from Invivogen (TLRL-CLI95), BAPTA-AM was purchased from Life Technologies (B6769), and 5-(N-ethyl-N-isopropyl) amiloride (EIPA) was purchased from Invitrogen Molecular Probes (e-3111). […]"}, "[3]": {"system": "RAW 264.7 cells", "assay": "Macropinocytosis assay: OG-nab-paclitaxel internalization by macrophages", "details": "30 minute pretreatment with inhibitor or blocking antibody", "method": "as §1"}, "[4]": {"details": "nab-ptx in combination with IFNγ"}}, "data": [{"smiles": "CC(=O)OCOC(=O)CN(CC(=O)OCOC(C)=O)c1ccccc1OCCOc1ccccc1N(CC(=O)OCOC(C)=O)CC(=O)OCOC(C)=O", "note": "[BAPTA-AM]", "values": [{"measurement": "effect on nab-paclitaxel-dependent M1 cytokine expression", "setting": "[1]", "result": "inhibited"}]}, {"smiles": "CCOC(=O)C1=CCCC[C@H]1S(=O)(=O)Nc1ccc(F)cc1Cl", "note": "[CLI-095]", "values": [{"measurement": "effect on LPS-dependent Il1α, Il1β, Il6, Il12b, and Tnfα gene expression", "setting": "[1]; TLR4 inhibitor with LPS", "result": "abrogated"}, {"measurement": "effect on nab-paclitaxel-dependent Il1α, Il1β, Il6, Il12b, and Tnfα gene expression", "setting": "[1]; TLR4 inhibitor with nab-ptx", "result": "abrogated"}, {"measurement": "effect on nab-paclitaxel and LPS-dependent iNOS protein expression", "setting": "[2]; with IFNγ", "result": "abrogated"}]}, {"smiles": "CCN(c1nc(N)c(C(=O)N=C(N)N)nc1Cl)C(C)C", "note": "[EIPA, 5-(N-ethyl-N-isopropyl) amiloride]", "values": [{"measurement": "effect on OG-nab-paclitaxel internalization", "setting": "[3]", "result": "reduced"}, {"measurement": "effect on nab-paclitaxel-dependent M1 cytokine expression", "setting": "[1]", "result": "inhibited"}, {"measurement": "effect on nab-paclitaxel-driven iNOS gene expression", "setting": "[1]; [4]", "result": "partially inhibited"}, {"measurement": "effect on nab-paclitaxel-driven iNOS protein expression", "setting": "[2]; [4]", "result": "partially inhibited"}]}]}
